According to patent US20210290680A1, “METHODS AND COMPOSITIONS FOR MODULATING CELLULAR AGING” (Dorian Therapeutics, Inc., priority 2019, published 2021):

How the values were obtained:
Format in all cases: cell-based, human
[1] = tested on: TCF7; test: qPCR of WNT pathway regulator TCF7; conditions: for TCF7 expression, fold change vs Control: CD19.CAR; for TCF7 expression, fold change vs Control / TCF7 expression vs Control: day 15, n=4; for TCF7 expression vs Control: GD2.CAR; for TCF7 expression, fold increase over Control: primary T cells, day 15
Excerpt: Primary T cells were activated as described (Example 3), transduced with a lentivirus encoding either a shUSP16 #1, shUSP16 #2 or a non-targeting shRNA (shCtrl) and cells were selected with puromycin at day 6. At day 15 cell were collected and analyzed by qPCR for the expression of LEF1 (FIG. 16A) and TCF7 (FIG. 16B), downstream regulators of the WNT pathway. At day 20, cells were stained for CD4-PE, CD8-BV510, CD62L-Allophycocyanin and CD45RA-APC-Cy7 (Biolegend). Stem cell memory T cells (Tscm) were identified as Sytox^− GFP^+CD45RA^+CD62L^+, central memory T cells (Tcm) as Sytox^−GFP^+CD45RA^−CD62L^+, effector memory T cells (Tem) as Sytox^−GFP^+CD45RA^−CD62L^−, and terminal effector T cell (Teff) as Sytox^−GFP^+CD45RA^+CD62L^− (FIG. 17A). Cells were gated on the CD8 population. The specific increase of Tscm was shown as phenotype ratio (FIG. 17B).
Primary T cells were activated as described (Example 3), transduced with a lentivirus encoding for either a CD19.CAR or a GD2.CAR co-expressing shUSP16 #1, shUSP16 #2 or a scrambled shRNA (Control). Fifteen days post-activation, T cells were collected and qPCR performed. TaqMan probes detecting CDKN1A, CDKN2A (FIGS. 26A and 26B) (fold change GD2.CAR (n=4): CDKN1A Control vs shUSP #1: 0.4360, p<0.0001, and Control vs shUSP16 #2: 3.036, p=0.004 respectively. Fold change CD19.CAR (n=4): CDKN2a, CDKN1A Control vs shUSP #1: 0.6906, p=0.0026; 0.7228, p=0.0297 and Control vs shUSP16 #2: 0.8385, p=0.2325; 0.7017, p=0.0021), TCF7, LEF1, and Axin-2 (FIGS. 27A and B) were analyzed in GD2.CAR and CD19.CAR-expressing cells, respectively. ACTB was used as internal control. (GD2.CAR (n=4) TCF7, LEF1 and Axin-2: Control vs shUSP #1: 1.914 p=0.0512; 1.795 p=0.0323; 3.269 p=0.15 and Control vs shUSP16 #2: 1.284 p=0.0494; 1.718 p=0.0586; 2.035p=0.235, respectively. Fold change CD19.CAR (n=4): TCF7, LEF1 and Axin-2: Control vs shUSP #1: 1.528, p=0.0277; 1.82, p=0.0449; 1.998, p=0.031 and Control vs shUSP16 #2: 1.18, p=0.2002; 1.579, p=0.0632; 1.261, p=0.2382). USP16 downregulation in CAR-T cells results in a decreased expression of senescence markers and an increase in the expression of genes associated with the activation/increased signaling of the WNT pathway, indicating its importance in delaying cellular senescence and increasing self-renewal.

[2] = tested on: CHLA-55 cells; test: CAR-T in vitro cytotoxicity assay, GD2.CAR T cells; conditions: 1:5 E:T, 72 hours, n=3
Description: (§1) Primary T cells were activated as described (Example 3), transduced with a lentivirus encoding for either a CD19.CAR or a GD2.CAR co-expressing shUSP16 #1, shUSP16 #2 or a scrambled shRNA (Control). Cells were cultured in IL-2 and sorted between days 6-13 for EGFRt. At day 16 cytotoxicity assays were performed. Briefly, cells were counted and 100,000 T cells (adjusted for EGFR expression) were plated at 1:5 Effector:Target (E:T) ratio. At 72 hours, the mixture of tumor cells and T cells were collected, stained for CD3-PE, CD8-BV510, CD19- or GD2-APC, EGFR-AF488 and Sytox and counted by flow cytometry (MACSQuant, Miltenyi Biotec) (FIGS. 30A and 30B). Counting beads (CountBright Absolute Counting beads, Invitrogen) were added before acquisition and absolute number was calculated as following (number of cell events/number of bead events)×(assigned bead count of the lot (beads/50 ul)/volume of sample (ul))=concentration of sample as cells/ul). NALM cells were used as target cells for CD19.CAR T cells and CHLA-55 cells were used as target for GD2.CAR T cells. Three different primary T cell cultures were tested for CD19 and GD2 CAR.

[3] = tested on: NALM cells; test: CAR-T in vitro cytotoxicity assay, CD19.CAR T cells; conditions: 1:5 E:T, 72 hours, n=3
Description: as §1

[4] = tested on: CHLA-55 cells; test: Re-challenge cytotoxicity assay, GD2.CAR T cells; conditions: after double tumor-challenge, n=3
Description: as §1
At day 16, regular cytotoxicity assays were also performed (Example 22). Three days post-antigen stimulation, CD19.CAR T cells were stained for EGFR-AF488 (R&D), CD3-PE, CD8-BV510, PD-1-Allophycocyanin and Lag-3 and CTLA4 (Biolegend) and acquired by MACSQuant (Miltenyi Biotec). The co-cultures we also re-challenged with the addition of fresh tumor cells. T cell killing and expansion upon double tumor-challenge was assessed after three days.

Substance	TCF7 expression, fold change vs Control [1]	TCF7 expression vs Control [1]	TCF7 expression, fold increase over Control [1]	CHLA-55 residual cells [2]	T cell number [2]	T cell number [3]	residual tumor cells (NALM) [3]	CHLA-55 residual cells [4]	T cell number [4]
shUSP16 #2: shRNA targeting USP16, 5′-TATATCAGTTCACCCGTAAT-3′ (SEQ ID NO: 9), pSIH backbone or co-expressed in CAR plasmid	1.18	1.284	1.428	129186	194025	58732	28462	330610	722634
shUSP16 #1: shRNA targeting USP16, 5′-GACTGTAAGACTGACAATAAA-3′ (SEQ ID NO: 8), pSIH backbone or co-expressed in CAR plasmid	1.528	1.914	2.804	159531	79566	46674	29688	436500	404709
